Format: physicochemical
Conditions: HPLC on reversed phase columns, method [a]: pH 2.7, 0.1% formic acid in water and acetonitrile, linear gradient 10% to 95% acetonitrile

log P	Structure (SMILES)
2.60[a]	CC1(C(=O)NCc2cnn(CC(F)(F)F)c2)CC(c2ccc3ncc(Br)cc3c2)=NO1 (stereo not shown) [compound 777]
2.88[a]	C#Cc1cnc2ccc(C3=NOC(C)(C(=O)NCC4CCC4)C3)cc2c1 (stereo not shown) [compound 778]
2.10[a]	C#Cc1cnc2ccc(C3=NOC(C)(C(=O)NCc4cncc(C#N)c4)C3)cc2c1 (stereo not shown) [compound 779]
1.60[a]	CN(C)c1ncccc1CNC(=O)C1(C)CC(c2ccc3ncc(Br)cc3c2)=NO1 (stereo not shown) [compound 780]
2.13[a]	C#Cc1cnc2ccc(C3=NOC(C)(C(=O)NCc4cncc(F)c4)C3)cc2c1 (stereo not shown) [compound 781]
2.35[a]	CC1(C(=O)NCc2cncc(C#N)c2)CC(c2ccc3ncc(Br)cc3c2)=NO1 (stereo not shown) [compound 782]
2.23[a]	C#Cc1cnc2ccc(C3=NOC(C)(C(=O)NCc4cccnc4F)C3)cc2c1 (stereo not shown) [compound 783]
2.37[a]	CC1(C(=O)NCc2cncc(F)c2)CC(c2ccc3ncc(Br)cc3c2)=NO1 (stereo not shown) [compound 784]
2.84[a]	C#Cc1cnc2ccc(C3=NOC(C)(C(=O)NCc4cccnc4OCC)C3)cc2c1 (stereo not shown) [compound 785]
2.51[a]	CC1(C(=O)NCc2cccnc2F)CC(c2ccc3ncc(Br)cc3c2)=NO1 (stereo not shown) [compound 786]
2.43[a]	C#Cc1cnc2ccc(C3=NOC(C)(C(=O)NCc4cnc(Cl)cn4)C3)cc2c1 (stereo not shown) [compound 787]
3.21[a]	CCOc1ncccc1CNC(=O)C1(C)CC(c2ccc3ncc(Br)cc3c2)=NO1 (stereo not shown) [compound 788]
2.41[a]	C#Cc1cnc2ccc(C3=NOC(C)(C(=O)NCc4cncc(Cl)n4)C3)cc2c1 (stereo not shown) [compound 789]
2.73[a]	CC1(C(=O)NCc2cnc(Cl)cn2)CC(c2ccc3ncc(Br)cc3c2)=NO1 (stereo not shown) [compound 790]
2.25[a]	C#Cc1cnc2ccc(C3=NOC(C)(C(=O)NCc4cncc(OC)n4)C3)cc2c1 (stereo not shown) [compound 791]
2.71[a]	CC1(C(=O)NCc2cncc(Cl)n2)CC(c2ccc3ncc(Br)cc3c2)=NO1 (stereo not shown) [compound 792]

log P	Structure (SMILES)
1.84[a]	C#Cc1cnc2ccc(C3=NOC(C)(C(=O)NCc4cc(C(C)C)ccn4)C3)cc2c1 (stereo not shown) [compound 793]
2.53[a]	COc1cncc(CNC(=O)C2(C)CC(c3ccc4ncc(Br)cc4c3)=NO2)n1 (stereo not shown) [compound 794]
2.96[a]	CC1(C(=O)NCc2ccnc(C(F)(F)F)c2)CC(c2ccc3ncc(Br)cc3c2)=NO1 (stereo not shown) [compound 795]
3.02[a]	C#Cc1cnc2ccc(C3=NOC(C)(C(=O)NCc4ccnc(SC(C)(C)C)c4)C3)cc2c1 (stereo not shown) [compound 796]
3.44[a]	CC(C)(C)Sc1cc(CNC(=O)C2(C)CC(c3ccc4ncc(Br)cc4c3)=NO2)ccn1 (stereo not shown) [compound 797]
2.32[a]	C#Cc1cnc2ccc(C3=NOC(C)(C(=O)NCc4ccnc(SC)c4)C3)cc2c1 (stereo not shown) [compound 798]
2.62[a]	CSc1cc(CNC(=O)C2(C)CC(c3ccc4ncc(Br)cc4c3)=NO2)ccn1 (stereo not shown) [compound 799]
1.36[a]	C#Cc1cnc2ccc(C3=NOC(C)(C(=O)NCc4ccnc(N(C)C)c4)C3)cc2c1 (stereo not shown) [compound 800]
1.49[a]	CN(C)c1cc(CNC(=O)C2(C)CC(c3ccc4ncc(Br)cc4c3)=NO2)ccn1 (stereo not shown) [compound 801]
2.23[a]	C#Cc1cnc2ccc(C3=NOC(C)(C(=O)NCc4ccnc(F)c4)C3)cc2c1 (stereo not shown) [compound 802]
2.51[a]	CC1(C(=O)NCc2ccnc(F)c2)CC(c2ccc3ncc(Br)cc3c2)=NO1 (stereo not shown) [compound 803]
2.02[a]	C#Cc1cnc2ccc(C3=NOC(C)(C(=O)NCc4ccncc4F)C3)cc2c1 (stereo not shown) [compound 804]
1.64[a]	C#Cc1cnc2ccc(C3=NOC(C)(C(=O)NCc4cccnc4O)C3)cc2c1 (stereo not shown) [compound 805]
1.54[a]	C#Cc1cnc2ccc(C3=NOC(C)(C(=O)NCc4ccc(O)nc4)C3)cc2c1 (stereo not shown) [compound 806]
1.72[a]	CC1(C(=O)NCc2ccc(O)nc2)CC(c2ccc3ncc(Br)cc3c2)=NO1 (stereo not shown) [compound 807]

Reference: patent publication US9510598B2, “Nitrogen-containing heterocyclic compounds for plant disease control” (BAYER CROPSCIENCE AG, priority 2012, dated 2016)
